Laboratory results as given in publication PMC12777568 (Antimicrobial Agents and Chemotherapy, 2025).
Where two headings read alike, the source gives them in different places.

What was measured:
[1] = BIC plasma pharmacokinetics, Phase 1 open-label single-dose DDI study GS-US-380-3909 (B/F/TAF 50/200/25 mg with antacid or mineral supplements); format: in vivo, human; conditions: both sexes, human, plasma, oral; for AUC(0-t): BIC plasma AUClast; for Tmax: BIC plasma Tmax, median (Q1, Q3)
Method: Eligible participants were adult (18–45 years) males and non-pregnant, non-lactating females in good general health at a screening evaluation performed no more than 28 days before the first study dose. […] Full eligibility criteria are available in the supplement. All prescription and over-the-counter medications except vitamins, acetaminophen, ibuprofen, and hormonal contraceptives were not permitted during study participation. Three dosing cohorts were evaluated (Table 1). […] Vitamins and/or other supplements were not permitted on the dosing day. […] Participants received maximum-strength antacid oral suspension (four teaspoons; 20 mL; 1,600 mg aluminum hydroxide/1,600 mg magnesium hydroxide/160 mg simethicone; referred to as “aluminum/magnesium-containing antacid”) on Day 9, calcium carbonate (1,200 mg; 2 × 600 mg tablets) on Day 17, and ferrous fumarate (1 × 324 mg tablet) on Day 25. […] All samples were analyzed within the timeframe determined using frozen stability storage data. […] PK parameters were estimated using Phoenix WinNonlin software (Version 6.4, Pharsight Corporation, Princeton, NJ, USA) using standard noncompartmental analysis methods. […] The estimated 90% CIs were compared to a prespecified lack of DDI boundary of 70%–143%. […] A minimum of 12 evaluable participants in each cohort was calculated to be needed to reject the null hypothesis (i.e., the 90% CI for the GLSM ratio for each PK parameter was outside the prespecified boundary) with ≥90% power.

[2] = tested on: HIV-1 integrase-DNA complexes; conditions: cited from earlier work

O=C(NCc1c(F)cc(F)cc1F)c1cn2c(c(O)c1=O)C(=O)N1[C@H]3CC[C@H](C3)O[C@@H]1C2 [BIC, bictegravir]
AUC(0-inf) ([1]; BIC plasma AUCinf, mean (%CV), Cohort 2 fasted, B/F/TAF alone, N = 14): 133000 ng·h/mL
AUC(0-inf) ([1]; BIC plasma AUCinf, mean (%CV), Cohort 3, B/F/TAF alone (fasted), N = 14): 93700 ng·h/mL
AUC(0-inf) ([1]; BIC plasma AUCinf, mean (%CV), Cohort 3 fed, B/F/TAF + aluminum/magnesium-containing antacid simultaneous, N = 14): 50800 ng·h/mL
AUC(0-inf) ([1]; BIC plasma AUCinf, mean (%CV), Cohort 3 fed, B/F/TAF + calcium carbonate simultaneous, N = 14): 94800 ng·h/mL
AUC(0-inf) ([1]; BIC plasma AUCinf, mean (%CV), Cohort 3 fed, B/F/TAF + ferrous fumarate simultaneous, N = 14): 77300 ng·h/mL
AUC(0-t) ([1]; mean (%CV), Cohort 1 fasted, B/F/TAF + aluminum/magnesium-containing antacid simultaneous, N = 14): 26200 ng·h/mL
AUC(0-t) ([1]; mean (%CV), Cohort 1 fasted, B/F/TAF + calcium carbonate simultaneous, N = 14): 80400 ng·h/mL
AUC(0-t) ([1]; mean (%CV), Cohort 1 fasted, B/F/TAF + ferrous fumarate simultaneous, N = 14): 43400 ng·h/mL
AUC(0-t) ([1]; mean (%CV), Cohort 1 fasted, B/F/TAF alone, N = 14): 117000 ng·h/mL
AUC(0-t) ([1]; mean (%CV), Cohort 2 fasted, B/F/TAF 2 hours after aluminum/magnesium-containing antacid, N = 13): 63400 ng·h/mL
AUC(0-t) ([1]; mean (%CV), Cohort 2 fasted, B/F/TAF 2 hours before aluminum/magnesium-containing antacid, N = 13): 111000 ng·h/mL
AUC(0-t) ([1]; mean (%CV), Cohort 2 fasted, B/F/TAF alone, N = 14): 125000 ng·h/mL
AUC(0-t) ([1]; mean (%CV), Cohort 3, B/F/TAF alone (fasted), N = 14): 91200 ng·h/mL
AUC(0-t) ([1]; mean (%CV), Cohort 3 fed, B/F/TAF + aluminum/magnesium-containing antacid simultaneous, N = 14): 49200 ng·h/mL
AUC(0-t) ([1]; mean (%CV), Cohort 3 fed, B/F/TAF + calcium carbonate simultaneous, N = 14): 91500 ng·h/mL
AUC(0-t) ([1]; mean (%CV), Cohort 3 fed, B/F/TAF + ferrous fumarate simultaneous, N = 14): 74500 ng·h/mL
concentration at 24 h ([1]; BIC plasma C24, mean (%CV), Cohort 1 fasted, B/F/TAF + aluminum/magnesium-containing antacid simultaneous, N = 14): 430 ng/mL
concentration at 24 h ([1]; BIC plasma C24, mean (%CV), Cohort 1 fasted, B/F/TAF + calcium carbonate simultaneous, N = 14): 1220 ng/mL
concentration at 24 h ([1]; BIC plasma C24, mean (%CV), Cohort 1 fasted, B/F/TAF + ferrous fumarate simultaneous, N = 14): 670 ng/mL
concentration at 24 h ([1]; BIC plasma C24, mean (%CV), Cohort 1 fasted, B/F/TAF alone, N = 14): 1800 ng/mL
concentration at 24 h ([1]; BIC plasma C24, mean (%CV), Cohort 2 fasted, B/F/TAF 2 hours after aluminum/magnesium-containing antacid, N = 13): 990 ng/mL
concentration at 24 h ([1]; BIC plasma C24, mean (%CV), Cohort 2 fasted, B/F/TAF 2 hours before aluminum/magnesium-containing antacid, N = 13): 1700 ng/mL
concentration at 24 h ([1]; BIC plasma C24, mean (%CV), Cohort 2 fasted, B/F/TAF alone, N = 14): 2010 ng/mL
concentration at 24 h ([1]; BIC plasma C24, mean (%CV), Cohort 3, B/F/TAF alone (fasted), N = 14): 1410 ng/mL
concentration at 24 h ([1]; BIC plasma C24, mean (%CV), Cohort 3 fed, B/F/TAF + aluminum/magnesium-containing antacid simultaneous, N = 14): 800 ng/mL
concentration at 24 h ([1]; BIC plasma C24, mean (%CV), Cohort 3 fed, B/F/TAF + calcium carbonate simultaneous, N = 14): 1460 ng/mL
concentration at 24 h ([1]; BIC plasma C24, mean (%CV), Cohort 3 fed, B/F/TAF + ferrous fumarate simultaneous, N = 14): 1230 ng/mL
Cmax ([1]; BIC plasma Cmax, mean (%CV), Cohort 1 fasted, B/F/TAF + aluminum/magnesium-containing antacid simultaneous, N = 14): 1200 ng/mL
Cmax ([1]; BIC plasma Cmax, mean (%CV), Cohort 1 fasted, B/F/TAF + ferrous fumarate simultaneous, N = 14): 1670 ng/mL
Cmax ([1]; BIC plasma Cmax, mean (%CV), Cohort 2 fasted, B/F/TAF 2 hours after aluminum/magnesium-containing antacid, N = 13): 2740 ng/mL
Cmax ([1]; BIC plasma Cmax, mean (%CV), Cohort 3 fed, B/F/TAF + aluminum/magnesium-containing antacid simultaneous, N = 14): 2450 ng/mL
Cmax ([1]; BIC plasma Cmax, mean (%CV), Cohort 3 fed, B/F/TAF + calcium carbonate simultaneous, N = 14): 4110 ng/mL
Tmax ([1]; Cohort 1 fasted, B/F/TAF + ferrous fumarate simultaneous, N = 14): 3.5 h
Tmax ([1]; Cohort 3 fed, B/F/TAF + aluminum/magnesium-containing antacid simultaneous, N = 14): 3.5 h
Tmax ([1]; Cohort 3 fed, B/F/TAF + calcium carbonate simultaneous, N = 14): 3.5 h
Tmax ([1]; Cohort 3 fed, B/F/TAF + ferrous fumarate simultaneous, N = 14): 4 h
AUC(0-inf) ([1]; Cohort 1 fasted, B/F/TAF with aluminum/magnesium-containing antacid simultaneous, N = 14, read-out: AUCinf, test GLSM): 25200 ng·h/mL
concentration at 24 h ([1]; Cohort 1 fasted, B/F/TAF with aluminum/magnesium-containing antacid simultaneous, N = 14, read-out: C24, test GLSM): 380 ng/mL
Cmax ([1]; Cohort 1 fasted, B/F/TAF with aluminum/magnesium-containing antacid simultaneous, N = 14, read-out: Cmax, test GLSM): 1100 ng/mL
AUC(0-inf) ([1]; Cohort 1 fasted, B/F/TAF with calcium carbonate simultaneous, N = 14, read-out: AUCinf, test GLSM): 79100 ng·h/mL
concentration at 24 h ([1]; Cohort 1 fasted, B/F/TAF with calcium carbonate simultaneous, N = 14, read-out: C24, test GLSM): 1130 ng/mL
Cmax ([1]; Cohort 1 fasted, B/F/TAF with calcium carbonate simultaneous, N = 14, read-out: Cmax, test GLSM): 3230 ng/mL
AUC(0-inf) ([1]; Cohort 1 fasted, B/F/TAF with ferrous fumarate simultaneous, N = 14, read-out: AUCinf, test GLSM): 44000 ng·h/mL
concentration at 24 h ([1]; Cohort 1 fasted, B/F/TAF with ferrous fumarate simultaneous, N = 14, read-out: C24, test GLSM): 640 ng/mL
Cmax ([1]; Cohort 1 fasted, B/F/TAF with ferrous fumarate simultaneous, N = 14, read-out: Cmax, test GLSM): 1610 ng/mL
AUC(0-inf) ([1]; Cohort 1 fasted, BIC alone (N = 14), read-out: AUCinf, reference GLSM): 119000 ng·h/mL
concentration at 24 h ([1]; Cohort 1 fasted, BIC alone (N = 14), read-out: C24, reference GLSM): 1740 ng/mL
AUC(0-inf) ([1]; Cohort 2 fasted, B/F/TAF 2 h after aluminum/magnesium-containing antacid, N = 14, read-out: AUCinf, test GLSM): 61100 ng·h/mL
concentration at 24 h ([1]; Cohort 2 fasted, B/F/TAF 2 h after aluminum/magnesium-containing antacid, N = 14, read-out: C24, test GLSM): 900 ng/mL
Cmax ([1]; Cohort 2 fasted, B/F/TAF 2 h after aluminum/magnesium-containing antacid, N = 14, read-out: Cmax, test GLSM): 2430 ng/mL
AUC(0-inf) ([1]; Cohort 2 fasted, B/F/TAF 2 h before aluminum/magnesium-containing antacid, N = 14, read-out: AUCinf, test GLSM): 111000 ng·h/mL
concentration at 24 h ([1]; Cohort 2 fasted, B/F/TAF 2 h before aluminum/magnesium-containing antacid, N = 14, read-out: C24, test GLSM): 1650 ng/mL
AUC(0-inf) ([1]; Cohort 2 fasted, BIC alone (N = 14), read-out: AUCinf, reference GLSM): 128000 ng·h/mL
concentration at 24 h ([1]; Cohort 2 fasted, BIC alone (N = 14), read-out: C24, reference GLSM): 1930 ng/mL
Cmax ([1]; Cohort 2 fasted, BIC alone (N = 14), read-out: Cmax, reference GLSM): 5840 ng/mL
AUC(0-inf) ([1]; Cohort 3, BIC alone (N = 14), fasted, read-out: AUCinf, reference GLSM): 89900 ng·h/mL
concentration at 24 h ([1]; Cohort 3, BIC alone (N = 14), fasted, read-out: C24, reference GLSM): 1350 ng/mL
AUC(0-inf) ([1]; Cohort 3 fed, B/F/TAF with aluminum/magnesium-containing antacid simultaneous, N = 14, read-out: AUCinf, test GLSM): 47900 ng·h/mL
concentration at 24 h ([1]; Cohort 3 fed, B/F/TAF with aluminum/magnesium-containing antacid simultaneous, N = 14, read-out: C24, test GLSM): 750 ng/mL
Cmax ([1]; Cohort 3 fed, B/F/TAF with aluminum/magnesium-containing antacid simultaneous, N = 14, read-out: Cmax, test GLSM): 2340 ng/mL
AUC(0-inf) ([1]; Cohort 3 fed, B/F/TAF with calcium carbonate simultaneous, N = 14, read-out: AUCinf, test GLSM): 92900 ng·h/mL
concentration at 24 h ([1]; Cohort 3 fed, B/F/TAF with calcium carbonate simultaneous, N = 14, read-out: C24, test GLSM): 1430 ng/mL
Cmax ([1]; Cohort 3 fed, B/F/TAF with calcium carbonate simultaneous, N = 14, read-out: Cmax, test GLSM): 4070 ng/mL
AUC(0-inf) ([1]; Cohort 3 fed, B/F/TAF with ferrous fumarate simultaneous, N = 14, read-out: AUCinf, test GLSM): 75400 ng·h/mL
concentration at 24 h ([1]; Cohort 3 fed, B/F/TAF with ferrous fumarate simultaneous, N = 14, read-out: C24, test GLSM): 1200 ng/mL
Cmax ([1]; Cohort 3 fed, B/F/TAF with ferrous fumarate simultaneous, N = 14, read-out: Cmax, test GLSM): 3410 ng/mL
dissociation half-life [2]: ~ 163 hours
